Values quoted from earlier work, collected in patent publication EP3520802A1, “PROCESS FOR EXTRACTING CURCUMINOIDS” (EFESON - Chemical Research & Engineering Development, priority 2018, dated 2019).

Details: non-clustered curcuminoid, usual value stated as background

logP: around 2.90
SMILES: COc1cc(/C=C/C(=O)CC(=O)/C=C/c2ccc(O)c(OC)c2)ccc1O [Curcumin I, curcumin]
